Data taken from publication PMC10051656, “Phenylpyrazolone-1,2,3-triazole Hybrids as Potent Antiviral Agents with Promising SARS-CoV-2 Main Protease Inhibition Potential” (Pharmaceuticals, 2023).
“And” between values parts separate entries of the source, which are not always exact repeats. Equal values may be shown once. Read-outs that look alike come from different tables or passages of the source.

Legend:
SARS-CoV-2 Main protease = SARS-CoV-2 Main protease (Severe acute respiratory syndrome coronavirus 2, UniProt P0DTD1); assay: biochemical
SARS-CoV-2 = assay: microbe, parasite or virus in culture; format: cell-based; settings: for API Value: ratio of 10 μM inhibition % of tested drug to the reference remdesivir
[1] = MTT cell viability / cytotoxicity in Vero E6 cells; design: cytotoxicity to Vero E6 cells: dose or concentration left out as unconfirmed; settings: African green monkey
Vero E6 cells = assay: MTT cell viability / cytotoxicity in Vero E6 cells; design: cytotoxicity to Vero E6 cells: dose or concentration left out as unconfirmed; settings: for IC50: read-out: Cytotoxicity (Vero E6) (IC50), Vero E6 cells, MTT test
SARS-CoV Main protease = settings: cited from earlier work
[2] = test system: Main protease of MERS-CoV; settings: cited from earlier work
[3] = triplicate readings with SE, read-out: IC50 (μM) ± SE
[4] = Severe acute respiratory syndrome coronavirus 2, Vero C1008, 1 μM, infected Vero E6 cells, MOI 0.01, read-out: Anti-SARS-CoV-2 Effect Assay (%) 1 μM
[5] = Severe acute respiratory syndrome coronavirus 2, Vero C1008, 10 μM, infected Vero E6 cells, MOI 0.01, read-out: Anti-SARS-CoV-2 Effect Assay (%) 10 μM
[6] = Cytotoxicity (Vero E6) (IC50, μM), Vero E6 cells, MTT test

| Structure (SMILES) | IC50 (SARS-CoV-2 Main protease; [3]) | inhibition at 1 µM (SARS-CoV-2; [4]) [%] | inhibition at 10 µM (SARS-CoV-2; [5]) [%] | API Value (SARS-CoV-2) | IC50 [1, 6] [µM] | also measured |
| --- | --- | --- | --- | --- | --- | --- |
| CC1=NN(c2ccc(Cl)cc2)C(=O)/C1=C\c1ccc(OCc2cn(-c3ccc(C(=O)O)cc3)nn2)cc1 [6a] | 76 µM and 76.9 µM | 10.8 ± 0.06 | 19.3 | 0.21 | 17.1 ± 13 | Anti-SARS-CoV-2 Effect Assay (%) 10 μM (SARS-CoV-2; 10 μM, infected Vero E6 cells, MOI 0.01): 19.27 ± 0.51% |
| CC1=NN(c2ccccc2)C(=O)/C1=C\c1ccc(OCc2cn(-c3ccc(C(=O)O)cc3)nn2)cc1 [6b] | > 200 µM | – | – | – | – | melting point: 205 to 206 °C |
| CC(=O)c1ccc(-n2cc(COc3ccc(/C=C4\C(=O)N(c5ccc(Cl)cc5)N=C4C)cc3)nn2)cc1 [6c] | 81.1 ± 3.9 µM | 4.46 ± 0.034 | 24.5 ± 0.37 | 0.26 | 92.1 ± 7 | – |
| CC1=NN(c2ccc(Cl)cc2)C(=O)/C1=C\c1ccc(OCc2cn(-c3ccc(F)cc3)nn2)cc1 [6d] | 42.4 ± 3.8 µM | 7.38 ± 0.007 | 55.47 ± 0.27 | 0.60 | 172 ± 13 | – |
| CC1=NN(c2ccc(Cl)cc2)C(=O)/C1=C\c1ccc(OCc2cn(-c3ccc([N+](=O)[O-])cc3)nn2)cc1 [6e] | 30.1 ± 1.4 µM | 17.4 ± 0.19 | 49.5 ± 1.01 | 0.53 | 66.4 ± 5.1 | – |
| CC1=NN(c2ccc(Cl)cc2)C(=O)/C1=C\c1ccc(OCc2cn(-c3ccc(Cl)cc3)nn2)cc1 [6f] | 144 ± 6.9 µM | 1.54 ± 0.089 | 30.2 ± 0.31 | 0.31 | 51.4 ± 3.9 | – |
| CC1=NN(c2ccc(Cl)cc2)C(=O)/C1=C\c1ccc(OCc2cn(-c3ccc(Cl)c(Cl)c3)nn2)cc1 [6g] | 200 ± 9.5 µM | 12.23 ± 0.05 | 38.74 ± 0.3 | 0.41 | 235 ± 18 | – |
| CC1=NN(c2ccc(Cl)cc2)C(=O)/C1=C\c1ccc(OCc2cn(-c3ccc(C)c(F)c3)nn2)cc1 [6h] | 5.08 ± 3.5 µM | 15.5 ± 0.003 | 64.2 | 0.66 | 33.7 ± 2.6 | – |
| CC1=NN(c2ccc(Cl)cc2)C(=O)/C1=C\c1ccc(OCc2cn(CC(=O)Nc3ccc(C(=O)O)cc3)nn2)cc1 [6i] | 3.17 µM and 7.55 µM and 3.1 µM and 3.16 µM | 21.86 ± 0.09 | 64 | 0.67 | 22.1 | IC50 (Vero E6 cells): 21.1 ± 1.6 µM |
| CC1=NN(c2ccc(Cl)cc2)C(=O)/C1=C\c1ccc(OCc2cn(CC(=O)Nc3ccc(F)cc3)nn2)cc1 [6j, (Z)-2-(4-((4-((1-(4-Chlorophenyl)-3-methyl-5-oxo-1H-pyrazol-4(5H)-ylidene)methyl)phenoxy)methyl)-1H-1,2,3-triazol-1-yl)-N-(4-fluorophenyl)acetamide] | 49.4 ± 2.4 µM | 16.16 ± 0.03 | 39.65 ± 0.25 | 0.46 | 156 ± 12 | – |
| CC1=NN(c2ccccc2)C(=O)/C1=C\c1ccc(OCc2cn(CC(=O)Nc3ccc(F)cc3)nn2)cc1 [6k, (Z)-N-(4-Fluorophenyl)-2-(4-((4-((3-methyl-5-oxo-1-phenyl-1H-pyrazol-4(5H)-ylidene)methyl)phenoxy)methyl)-1H-1,2,3-triazol-1-yl)acetamide] | > 200 µM | – | – | – | – | IC50 (SARS-CoV-2 Main protease; unit inferred, read-out: IC50 (numbers printed in the chart of Figure 5)): 200 µM; melting point: 201 to 203 °C |
| CC1=NN(c2ccc(Cl)cc2)C(=O)/C1=C\c1ccc(OCc2cn(CC(=O)Nc3ccc([N+](=O)[O-])cc3)nn2)cc1 [6l, (Z)-2-(4-((4-((1-(4-Chlorophenyl)-3-methyl-5-oxo-1H-pyrazol-4(5H)-ylidene)methyl)phenoxy)methyl)-1H-1,2,3-triazol-1-yl)-N-(4-nitrophenyl)acetamide] | 135 ± 6.5 µM | 8.84 ± 0.11 | 46.91 ± 0.28 | – | 32.6 ± 2.5 | – |
| CC1=NN(c2ccc(Cl)cc2)C(=O)/C1=C\c1ccc(OCc2cn(CC(=O)Nc3ccc(C)c(F)c3)nn2)cc1 [6m, (Z)-2-(4-((4-((1-(4-Chlorophenyl)-3-methyl-5-oxo-1H-pyrazol-4(5H)-ylidene)methyl)phenoxy)methyl)-1H-1,2,3-triazol-1-yl)-N-(3-fluoro-4-methylphenyl)acetamide] | 25.7 ± 0.4 µM | 9.55 ± 0.02 | ~50 | 0.49 | 189 ± 14 | – |
| CC1=NN(c2ccc(Cl)cc2)C(=O)/C1=C\c1ccc(OCc2cn(CC(=O)NCc3ccc(Cl)cc3)nn2)cc1 [6n, (Z)-N-(4-Chlorobenzyl)-2-(4-((4-((1-(4-chlorophenyl)-3-methyl-5-oxo-1H-pyrazol-4(5H)-ylidene)methyl)phenoxy)methyl)-1H-1,2,3-triazol-1-yl)acetamide] | 86.6 ± 4.1 µM | 3.73 ± 0.01 | 51.13 ± 0.14 | 0.55 | 23.1 ± 1.8 | – |
| CC1=NN(c2ccc(Cl)cc2)C(=O)/C1=C\c1ccc(OCc2cn(CC(=O)NCc3ccc(C)cc3)nn2)cc1 [6o, (Z)-2-(4-((4-((1-(4-Chlorophenyl)-3-methyl-5-oxo-1H-pyrazol-4(5H)-ylidene)methyl)phenoxy)methyl)-1H-1,2,3-triazol-1-yl)-N-(4-methylbenzyl)acetamide] | 43.3 ± 2.1 µM | 12.23 ± 0.1 | 54.1 ± 0.61 | 0.56 | 262 ± 20 | – |
| COc1ccc(CNC(=O)Cn2cc(COc3ccc(/C=C4\C(=O)N(c5ccc(Cl)cc5)N=C4C)cc3)nn2)cc1 [6p, (Z)-2-(4-((4-((1-(4-Chlorophenyl)-3-methyl-5-oxo-1H-pyrazol-4(5H)-ylidene)methyl)phenoxy)methyl)-1H-1,2,3-triazol-1-yl)-N-(4-methoxybenzyl)acetamide] | 23.7 ± 1.1 µM | 9.5 ± 0.11 | ~50 | 0.54 | 20.1 ± 1.5 | – |
| CC1=NN(c2ccc(Cl)cc2)C(=O)/C1=C\c1ccc(OCc2cn(CC(=O)NCc3ccc(F)cc3)nn2)cc1 [6q, (Z)-2-(4-((4-((1-(4-Chlorophenyl)-3-methyl-5-oxo-1H-pyrazol-4(5H)-ylidene)methyl)phenoxy)methyl)-1H-1,2,3-triazol-1-yl)-N-(4-fluorobenzyl)acetamide] | 3.16 µM and 7.55 µM | 12.9 ± 0.03 | 79 | 0.84 | > 20 | IC50 (Vero E6 cells): 35.3 ± 2.7 µM |
| CC(C)CC(NC(=O)OCc1ccccc1)C(=O)NC(CC1CCNC1=O)C(O)S(=O)(=O)O (centres unmarked) [GC-376, reference compound] | – | 78.96 ± 0.67 | 92.9 ± 1.15 | 0.99 | 41.2 ± 1.1 | – |
| CCC(CC)COC(=O)[C@H](C)N[P@](=O)(OC[C@H]1O[C@@](C#N)(c2ccc3c(N)ncnn23)[C@H](O)[C@@H]1O)Oc1ccccc1 [REM, remdesivir, reference compound] | – | – | – | 1.0 | – | inhibition at 1 µM (SARS-CoV-2; Severe acute respiratory syndrome coronavirus 2, Vero C1008, read-out: Anti-SARS-CoV-2 Effect Assay (%) 1 μM): 89.6 ± 0.98%; inhibition at 10 µM (SARS-CoV-2; Severe acute respiratory syndrome coronavirus 2, Vero C1008, read-out: Anti-SARS-CoV-2 Effect Assay (%) 10 μM): 93.3 ± 1.17%; cytotoxicity to Vero E6 cells (Vero E6 cells; positive control): no cytotoxicity; IC50 [1]: 61.8 ± 4.7 µM |
| N#Cc1ccc(N2N=C(c3ccccc3)/C(=C/c3ccc(C(=O)O)cc3)C2=O)cc1 [compound 7] | – | – | – | – | – | IC50 (SARS-CoV Main protease): 5.5 µM |
| O=C(O)c1ccc(/C=C2\C(=O)N(c3ccc(F)cc3)N=C2c2ccccc2)cc1 [compound 8] | – | – | – | – | – | IC50 (SARS-CoV Main protease): 6.8 µM |
| O=C(O)c1cccc(N2N=C(c3ccccc3)/C(=C/c3ccc(-c4ccccc4)o3)C2=O)c1 [compound 9] | – | – | – | – | – | IC50 [2]: 5.8 µM; IC50 (SARS-CoV Main protease): 6.4 µM |
| CC(C)(C)c1ccc(N2N=C(c3ccccc3)/C(=C/c3ccc(-c4cc(Cl)ccc4C(=O)O)o3)C2=O)cc1 [compound 10] | – | – | – | – | – | IC50 [2]: 7.4 µM; IC50 (SARS-CoV Main protease): 5.8 µM |
| Cc1cccc(C)c1OCC(=O)N[C@@H](Cc1ccccc1)[C@@H](O)C[C@H](Cc1ccccc1)NC(=O)[C@H](C(C)C)N1CCCNC1=O [lopinavir, reference compound] | 82.2 µM | – | – | – | – | – |
